In series [1] the test system is catalase and SOD2. The experiment in a line: Tissue immunohistostaining of cochlea (spiral ganglia, auditory hair cells) in noise-induced hearing loss animal model. In kind it is in vivo, Balb/c mice. The following applies: immunohistochemistry, spiral ganglia (apex, middle, base) and auditory hair cells in cochlea; pretreated 50 mg/kg. As for the experimental part: Confocal Laser Scanning Microscopes and immunostaining were performed for the morphological analysis of spiral ganglia and hair cells located in the organ of Corti in the cochlea in noise-induced hearing loss animal model of Example 1. […] The animal tissues were immobilized and embedded with paraffin to obtain tissue sections. Anti-oxidation-related protein antibodies were primarily attached to the tissue sections, fluorescent antibodies were secondarily attached thereto, and immunohistochemistry was performed to analyze the expression behavior of the anti-oxidation-related proteins. The antibodies were subjected to immunohistochemistry with the antioxidant factors, catalase (Abcam, ab1877, Cambridge, UK), SOD2 (Santa Cruz, Calif., USA), and DAPI (Invitrogen, Carlsbad, Calif.).

Series [2] has as its system HEI-OC1 cells. The series can be described thus: Cytotoxicity of sarpogrelate by WST-1 analysis. In kind it is cell-based. The following applies: 0.1, 1, 10 and 25 μM for 24 hours. As for the experimental part:
Auditory cell (HEI-OC1; House-Ear Institute-organ of Corti 1) lines expressing auditory genes were used, and the HEI-OC1 cells were cultured at 33° C. and under 10% CO2 in DMEM medium (Dulbecco's modified Eagle's Medium) containing a high concentration of glutamine, supplemented with 10% fetal bovine serum (FBS) and 25 U/ml of interferon gamma.

The subject of series [3] is HEI-OC1 cells. The experiment in a line: Cytotoxicity and apoptosis caused by H2O2, WST-1 analysis. In kind it is cell-based. The following applies: pretreatment 0.1, 1, 10 and 25 μM for 1 hour, then 500 μM H2O2 for 24 hours. On the procedure: Auditory cell (HEI-OC1; House-Ear Institute-organ of Corti 1) lines expressing auditory genes were used, and the HEI-OC1 cells were cultured at 33° C. and under 10% CO2 in DMEM medium (Dulbecco's modified Eagle's Medium) containing a high concentration of glutamine, supplemented with 10% fetal bovine serum (FBS) and 25 U/ml of interferon gamma. A noise-induced hearing loss cell line was established through treatment with H2O2 to produce reactive oxygen species (ROS) by oxidative stress during induction of hearing loss by noise.
A general note: Tetrazolium assays rely on reduction of a dye to a coloured formazan, in cell work by metabolically active cells.

Series [4] deals with catalase and SOD2. The experiment in a line: mRNA expression of antioxidant enzymes by quantitative real-time PCR in H2O2-treated auditory cells. The following applies: pre-treated 1, 10, 25 and 50 μM for 1 hour, 250 μM H2O2 for 24 hours. In kind it is cell-based. As for the experimental part: (§1) The mRNA expression was determined by quantitative real-time PCR after extraction of total RNA and synthesis of cDNA. Protein expression was observed by extracting total protein with RIPA buffer, separating proteins in the order of size by SDS-PAGE and then attaching catalase (catalase, Abcam, ab1877, Cambridge, UK)) and SOD2 (superoxide dismutase 2, Santa Cruz, Calif., USA) thereto.
(In qPCR the cycle at which signal appears reflects the starting amount.)

The subject of series [5] is catalase and SOD2. The series can be described thus: Protein expression of antioxidant enzymes by Western blotting in H2O2-treated auditory cells. In kind it is cell-based. The note with it: pre-treated 1, 10, 25 and 50 μM for 1 hour, 250 μM H2O2 for 24 hours. On the procedure:
as §1
In general terms: A western blot detects proteins with antibodies after separation by electrophoresis.

A further series relates to platelet aggregation. The note with it: cited from earlier work.
Series [6] concerns peripheral arterial occlusion. The note with it: rat, injection of lauric acid; cited from earlier work.
The test system of another series is arterial thrombosis. The note with it: mouse vascular endothelial injury; rat polyethylene tube; cited from earlier work.
Series [7] has as its system rat vascular smooth muscles. The note with it: in vitro; cited from earlier work.

On to `COc1cccc(CCc2ccccc2OCC(CN(C)C)OC(=O)CCC(=O)O)c1` (stereo not drawn) [sarpogrelate, 4-[2-(dimethylamino)-1-({2-[2-(3-methoxyphenyl)ethyl]phenoxy}methyl)ethoxy]-4-oxobutanoic acid], for which, in the series with catalase and SOD2 [1], the “expression of SOD2” value is “significantly increased” and the expression of catalase result was “significantly increased”. In the series on HEI-OC1 cells [2], the cytotoxicity of sarpogrelate result is given as “not to cause cytotoxicity”. For the same molecule, the “apoptosis of auditory cells caused by H2O2” value with HEI-OC1 cells [3] is “inhibiting apoptosis”. For the same molecule, in the series with catalase and SOD2 [4], the “mRNA expression of SOD2” value is “increased” and the “mRNA expression of catalase” value is recorded as “increased”. In the series on catalase and SOD2 [5], the “protein expression of SOD2” value is reported as “increased” and the “protein expression of catalase” value is recorded as “increased”. The “platelet aggregation by collagen and secondary platelet aggregation by ADP or epinephrine” value with platelet aggregation is on record as “inhibited”. Further, the “onset of the condition in the peripheral arterial occlusion model” value in series [6] is “inhibits the onset of the condition”. In addition, the “formation of thrombus in arterial thrombosis models” value in the series with arterial thrombosis is recorded as “inhibit the formation of thrombus”. In series [7], the “contraction of vascular smooth muscles by serotonin” value is listed as “inhibiting the contraction”.

(Values after US11376233B2 (AJOU UNIVERSITY INDUSTRY-ACADEMIC COOPERATION FOUNDATION, priority 2017, dated 2022).)
